For data set [1] the following is noted: en solution aqueuse, en dessous d'un pH de 6,8; cited from earlier work.
Data set [2] is described as follows: ATR-FTIR spectroscopy of the effect on artificial lipid bilayer membranes (phase transition). To be noted: DPPC membranes. From the text:
(§1) L'effet, sur les bicouches lipidiques qui constituent les membranes biologiques, d'un complexe suivant l'invention renfermant de l'acide orthosilicique et de la vanilline, a été étudié par spectroscopie ATR-FTIR. Des membranes artificielles formées de DPPC (1,2 dipalmitoyl-sn-glycéro-3-phosphatydilcholine) ou d'un mélange 85/15 de DPPC/DPPS (1,2 dipalmitoyl-sn-glycéro-3-phosphatydilsérine) ont été utilisées. Les membranes présentent des transitions de phase à des températures caractéristiques (Tc à 41 °C et 53°C pour le DPPC et le DPPS respectivement). […] Les résultats tendent à montrer que le complexe s'insère dans la bicouche lipidique et de ce fait diminue les interactions entre les lipides. […] Il se produit une séparation de phase et le mélange lipidique n'est plus homogène. Ceci suggère que le composé aromatique stabilisant l'acide orthosilicique a une affinité plus grande pour un des deux lipides ce qui provoque une ségrégation spatiale des composants de la membrane.

A short description of data set [3]: ATR-FTIR spectroscopy of the effect on artificial mixed lipid bilayer membranes (phase transition). To be noted: DPPC/DPPS 85/15 membranes.
Excerpt: as §1

In the case of complexe de silicium-catéchol, in data set [1], the dissociation du complexe entry is reported as “complètement dissocié”.
For “complexe stabilisé d'acide orthosilicique et de 4-hydroxy-3-méthoxybenzaldéhyde (vanilline) [Exemple 1]”, the “effet sur la transition de phase des lipides” value in data set [2] is “diminue l'énergie requise pour que les lipides participent à la transition de phase”. The “effet sur le mélange lipidique” value in data set [3] is on record as “induit une démixtion des deux lipides”.

The values are drawn from EP2526954A1, “Bioavailable silicon complex, method for preparing same and use thereof” (Dexsil Labs, priority 2011, dated 2012).
